Measured values reported in the supplement of paper PMC11061612.

Key:
Assay in all cases: combination Emax (second highest fraction inhibited in the dose matrix, 72 h); higher = more inhibition; extreme values may be limits of the assay
[1] = test system: 697 (B-Lymphoblastic Leukemia)
How it was run: (§1)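 After 24 hours at 37°C and 5% CO2 in 1536-well plates, cells in DMEM/F12 or RPMI plus 10% FBS received two-drug dose matrices for 72 hours. Viability came from CellTiter-Glo 2.0 luminescence and was scaled as inhibition, anchored at 0 by vehicle wells and at 1 by blank wells. Combination Emax is taken as the second-highest inhibition in the matrix, and Bliss excess as the observed combination effect less EA + EB − EA·EB, with EA and EB the single-agent effects.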

[2] = test system: C3A (Hepatocellular Carcinoma)
How it was run: as §1

[3] = test system: COR-L23 (Non-Small Cell Lung Carcinoma)
How it was run: as §1

[4] = test system: CTV-1 (T-Lymphoblastic Leukemia)
How it was run: as §1

[5] = test system: DB (B-Cell Non-Hodgkin's Lymphoma)
How it was run: as §1

[6] = test system: DMS-273 (Small Cell Lung Carcinoma)
How it was run: as §1

[7] = test system: EM-2 (Chronic Myelogenous Leukemia)
How it was run: as §1

ES7 (Ewing's Sarcoma) = test system: ES7 (Ewing's Sarcoma)
How it was run: as §1

[8] = test system: G-292-Clone-A141B1 (Osteosarcoma)
How it was run: as §1

[9] = test system: HT-29 (Colorectal Carcinoma)
How it was run: as §1

J82 (Bladder Carcinoma) = test system: J82 (Bladder Carcinoma)
How it was run: as §1

[10] = test system: JiyoyeP-2003 (Burkitt's Lymphoma)
How it was run: as §1

[11] = test system: KATOIII (Gastric Carcinoma)
How it was run: as §1

[12] = test system: LU-99A (Non-Small Cell Lung Carcinoma)
How it was run: as §1

[13] = test system: NCI-H1694 (Small Cell Lung Carcinoma)
How it was run: as §1

[14] = test system: NCI-H1781 (Lung Adenocarcinoma)
How it was run: as §1

[15] = test system: NCI-H1793 (Lung Adenocarcinoma)
How it was run: as §1

RH-1 (Ewing's Sarcoma) = test system: RH-1 (Ewing's Sarcoma)
How it was run: as §1

[16] = test system: SW1783 (Low Grade Glioma)
How it was run: as §1

[17] = test system: TE-5 (Esophageal Squamous Cell Carcinoma)
How it was run: as §1

Row | Structure (SMILES) | combination Emax [1] | combination Emax [2] | combination Emax [3] | combination Emax [4] | combination Emax [5] | combination Emax [6] | combination Emax [7] | combination Emax (ES7 (Ewing's Sarcoma)) | combination Emax [8] | combination Emax [9] | combination Emax (J82 (Bladder Carcinoma)) | combination Emax [10] | combination Emax [11] | combination Emax [12] | combination Emax [13] | combination Emax [14] | combination Emax [15] | combination Emax (RH-1 (Ewing's Sarcoma)) | combination Emax [16] | combination Emax [17]
1 | COc1nnc2ccc(N3CCC(c4ccc(OCCN5CCN(C)C(=O)[C@H]5C)cc4)CC3)nn12 [AZD5153] + CC1(C)CCC(CN2CCN(c3ccc(C(=O)NS(=O)(=O)c4ccc(NCC5CCOCC5)c([N+](=O)[O-])c4)c(Oc4cnc5[nH]ccc5c4)c3)CC2)=C(c2ccc(Cl)cc2)C1 [Venetoclax] (first compound max 1 µM, 7x7, partner max 1 µM) | 1 | 0.453 | 0.317 | 0.963 | 0.991 | 0.749 | 0.918 | 0.565 | 0.256 | 0.718 | 0.308 | 0.833 | 0.337 | 0.456 | 0.551 | 0.224 | 0.248 | 0.334 | 0.28 | 0.412
2 | COc1nnc2ccc(N3CCC(c4ccc(OCCN5CCN(C)C(=O)[C@H]5C)cc4)CC3)nn12 [AZD5153] + CCN(CCO)CCCOc1ccc2c(Nc3cc(CC(=O)Nc4cccc(F)c4)[nH]n3)ncnc2c1 [AZD2811] (first compound max 1 µM, 7x7, partner max 1 µM) | 1 | 0.524 | 0.354 | 0.974 | 0.722 | 0.901 | 0.986 | 0.884 | 0.366 | 0.72 | 0.355 | 0.846 | 0.31 | 0.505 | 0.364 | 0.517 | 0.278 | 0.995 | 0.328 | 0.434
3 | COc1nnc2ccc(N3CCC(c4ccc(OCCN5CCN(C)C(=O)[C@H]5C)cc4)CC3)nn12 [AZD5153] + C[C@@H]1COCCN1C2=NC(=NC(=C2)C3(CC3)[S@](=N)(=O)C)C4=C5C=CNC5=NC=C4 [AZD6738] (first compound max 1 µM, 7x7, partner max 10 µM) | 1 | 0.741 | 0.772 | 0.987 | 0.811 | 0.883 | 0.998 | 0.952 | 0.458 | 0.863 | 0.604 | 0.95 | 0.553 | 0.755 | 0.921 | 0.491 | 0.629 | 0.957 | 0.515 | 0.503
4 | COc1nnc2ccc(N3CCC(c4ccc(OCCN5CCN(C)C(=O)[C@H]5C)cc4)CC3)nn12 [AZD5153] + Cc1c2c(nn1C)CSCc1cc(n(C)n1)CSc1cc(c3ccccc3c1)OCCCc1c(C(=O)O)n(C)c3c-2c(Cl)ccc13 [AZD5991] (first compound max 1 µM, 7x7, partner max 1 µM) | 1 | 0.559 | 0.312 | 0.939 | 1 | 0.994 | 0.988 | 0.928 | 0.387 | 0.716 | 0.791 | 0.918 | 0.324 | 0.807 | 0.992 | 0.435 | 0.288 | 0.937 | 0.336 | 0.407
5 | COc1nnc2ccc(N3CCC(c4ccc(OCCN5CCN(C)C(=O)[C@H]5C)cc4)CC3)nn12 [AZD5153] + Cn1cnc2c(F)c(Nc3ccc(Br)cc3Cl)c(C(=O)NOCCO)cc21 [Selumetinib] (first compound max 1 µM, 7x7, partner max 10 µM) | 1 | 0.777 | 0.422 | 0.99 | 0.761 | 0.71 | 0.992 | 0.549 | 0.317 | 0.848 | 0.496 | 0.839 | 0.424 | 0.949 | 0.234 | 0.327 | 0.373 | 0.315 | 0.246 | 0.429
6 | Cc1c2c(nn1C)CSCc1cc(n(C)n1)CSc1cc(c3ccccc3c1)OCCCc1c(C(=O)O)n(C)c3c-2c(Cl)ccc13 [AZD5991] + C1CN(CCC1(C(=O)N[C@@H](CCO)C2=CC=C(C=C2)Cl)N)C3=NC=NC4=C3C=CN4 [Capivasertib] (first compound max 1 µM, 7x7, partner max 3 µM) | 1 | 0.254 | 0.182 | 0.337 | 0.987 | 0.987 | 0.409 | 0.825 | 0.248 | 0.236 | 0.201 | 0.857 | 0.233 | 0.297 | 1 | 0.76 | 0.302 | 0.795 | 0.352 | 0.329
7 | Cc1c2c(nn1C)CSCc1cc(n(C)n1)CSc1cc(c3ccccc3c1)OCCCc1c(C(=O)O)n(C)c3c-2c(Cl)ccc13 [AZD5991] + CC1(C)CCC(CN2CCN(c3ccc(C(=O)NS(=O)(=O)c4ccc(NCC5CCOCC5)c([N+](=O)[O-])c4)c(Oc4cnc5[nH]ccc5c4)c3)CC2)=C(c2ccc(Cl)cc2)C1 [Venetoclax] (first compound max 1 µM, 7x7, partner max 1 µM) | 1 | 0.181 | 0.164 | 0.13 | 1 | 0.964 | 0.975 | 0.893 | 0.184 | 0.189 | 0.164 | 0.732 | 0.101 | 0.111 | 0.988 | 0.432 | 0.174 | 0.766 | 0.444 | 0.525
8 | Cc1c2c(nn1C)CSCc1cc(n(C)n1)CSc1cc(c3ccccc3c1)OCCCc1c(C(=O)O)n(C)c3c-2c(Cl)ccc13 [AZD5991] + CCN(CCO)CCCOc1ccc2c(Nc3cc(CC(=O)Nc4cccc(F)c4)[nH]n3)ncnc2c1 [AZD2811] (first compound max 1 µM, 7x7, partner max 1 µM) | 1 | 0.32 | 0.201 | 0.278 | 0.987 | 0.993 | 0.906 | 0.95 | 0.276 | 0.383 | 0.192 | 0.803 | 0.116 | 0.37 | 0.985 | 0.875 | 0.2 | 0.956 | 0.246 | 0.261
9 | Cc1c2c(nn1C)CSCc1cc(n(C)n1)CSc1cc(c3ccccc3c1)OCCCc1c(C(=O)O)n(C)c3c-2c(Cl)ccc13 [AZD5991] + C[C@@H]1COCCN1C2=NC(=NC(=C2)C3(CC3)[S@](=N)(=O)C)C4=C5C=CNC5=NC=C4 [AZD6738] (first compound max 1 µM, 7x7, partner max 10 µM) | 1 | 0.437 | 0.57 | 0.781 | 0.999 | 0.98 | 0.98 | 0.852 | 0.281 | 0.836 | 0.389 | 0.965 | 0.373 | 0.572 | 1 | 0.752 | 0.488 | 0.956 | 0.441 | 0.494
10 | Cc1c2c(nn1C)CSCc1cc(n(C)n1)CSc1cc(c3ccccc3c1)OCCCc1c(C(=O)O)n(C)c3c-2c(Cl)ccc13 [AZD5991] + C[C@@H](Nc1cc(F)cc(F)c1)c1cc(C(=O)N(C)C)cc2c(=O)cc(N3CCOCC3)oc12 [AZD8186] (first compound max 1 µM, 7x7, partner max 3 µM) | 0.978 | 0.292 | 0.104 | 0.143 | 0.974 | 0.956 | 0.259 | 0.95 | 0.415 | 0.24 | 0.234 | 0.718 | 0.175 | 0.275 | 0.953 | 0.584 | 0.263 | 0.827 | 0.4 | 0.191
11 | Cc1c2c(nn1C)CSCc1cc(n(C)n1)CSc1cc(c3ccccc3c1)OCCCc1c(C(=O)O)n(C)c3c-2c(Cl)ccc13 [AZD5991] + Cc1cc2ncnn2cc1Nc1ncc2c(n1)n(C1CCOCC1)c(=O)n2C [AZD7648] (first compound max 1 µM, 7x7, partner max 10 µM) | 1 | 0.248 | 0.131 | 0.29 | 0.995 | 0.988 | 0.446 | 0.682 | 0.267 | 0.223 | 0.187 | 0.784 | 0.178 | 0.414 | 0.998 | 0.515 | 0.41 | 0.605 | 0.256 | 0.356
12 | Cc1c2c(nn1C)CSCc1cc(n(C)n1)CSc1cc(c3ccccc3c1)OCCCc1c(C(=O)O)n(C)c3c-2c(Cl)ccc13 [AZD5991] + Cn1cnc2c(F)c(Nc3ccc(Br)cc3Cl)c(C(=O)NOCCO)cc21 [Selumetinib] (first compound max 1 µM, 7x7, partner max 3 µM) | 1 | 0.487 | 0.31 | 0.187 | 1 | 0.987 | 0.609 | 0.759 | 0.221 | 0.706 | 0.197 | 0.675 | 0.178 | 0.379 | 0.986 | 0.492 | 0.244 | 0.52 | 0.211 | 0.287
